The results in this text go back to patent US7884129B2, “Composition comprising the alcohol compound isolated from the extract of cucurbitaceae family plant having anti-adipogenic and anti-obesity activity” (Helixir Co., Ltd., priority 2003, dated 2011).

In experiment [1] the test system is Preadipocytes (3T3-L1). Kind of experiment: Inhibition of adipocyte differentiation and triglyceride level (Oil Red O staining). The class given is cell-based. The method, then:
To determine the inhibiting activity of the compound prepared by Examples 1, i.e., dehydrodiconiferylalcohol (DHCA), on the adipocytes differentiation and triglyceride level, following experiment was performed.
Preadipocytes (3T3-L1) purchased from ATCC (American […], USA) were cultured in RPMI medium containing 10% FBS and MDI cocktail (isobutylmethylxanthine, dexamethasone, insulin) was added thereto for differentiating into mature adipocytes. After two days, the medium was replaced and treated with only insulin. Thereafter, the medium was replaced and equal concentration of insulin was treated again every other day. DHCA ranging from 10 to 1000 ug/ml of the concentrations was treated when the adipocyte differentiation was induced and equal concentration of the DHCA was treated at every replacement of the medium. Troglitazone (Sigma Co.) and 10 uM SB203580 (Sigma Co.) were treated as control groups and 0.01% ethanol was used as a vehicle control. After eight days lapsed, the accumulated fat within differentiated cell was stained with Oil Red 0 staining reagent and the absorbance was determined with optical density qualitatively at 490 nm. The inhibition percentage (%) was calculated by following Empirical Formula 1. The Inhibition Percentage (%)=[O.D. of test group]/[O.D. value of control group]×100 Empirical Formula 1

The target of experiment [2] is T1, PPAR α (Homo sapiens, UniProt Q07869).
T1 construct: expressed in transfected cells; host or cells: CV-1 cells
T1 sequence (Q07869 1-468): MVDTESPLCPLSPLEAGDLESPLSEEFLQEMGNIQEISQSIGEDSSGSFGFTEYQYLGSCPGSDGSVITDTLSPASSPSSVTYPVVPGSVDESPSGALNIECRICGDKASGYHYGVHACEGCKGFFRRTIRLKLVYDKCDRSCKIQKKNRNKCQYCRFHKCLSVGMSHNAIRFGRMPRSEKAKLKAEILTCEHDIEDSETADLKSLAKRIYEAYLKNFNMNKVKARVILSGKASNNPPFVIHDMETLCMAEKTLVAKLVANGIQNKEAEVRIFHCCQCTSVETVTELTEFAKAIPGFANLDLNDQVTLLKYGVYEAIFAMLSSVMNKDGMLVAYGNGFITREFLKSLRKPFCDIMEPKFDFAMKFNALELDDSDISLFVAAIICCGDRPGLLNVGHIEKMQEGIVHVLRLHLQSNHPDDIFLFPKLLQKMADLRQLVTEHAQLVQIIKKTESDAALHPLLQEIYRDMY
T1 sequence (P19793 1-462 partner): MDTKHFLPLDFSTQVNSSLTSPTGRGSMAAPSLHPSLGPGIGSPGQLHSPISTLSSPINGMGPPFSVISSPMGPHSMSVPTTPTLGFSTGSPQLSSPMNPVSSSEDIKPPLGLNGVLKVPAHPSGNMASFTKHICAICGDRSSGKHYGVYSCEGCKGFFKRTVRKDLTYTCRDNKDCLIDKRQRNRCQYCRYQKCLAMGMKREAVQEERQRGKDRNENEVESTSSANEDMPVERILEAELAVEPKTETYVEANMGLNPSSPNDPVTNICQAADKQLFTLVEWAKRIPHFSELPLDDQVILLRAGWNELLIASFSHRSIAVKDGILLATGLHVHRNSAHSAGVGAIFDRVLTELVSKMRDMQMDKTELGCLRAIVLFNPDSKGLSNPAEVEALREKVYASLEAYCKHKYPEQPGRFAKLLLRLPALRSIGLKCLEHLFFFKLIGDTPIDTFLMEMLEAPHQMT
Nature of the experiment: PPAR α activation, tkPPRE-luciferase reporter in transfected CV-1 cells. The format is cell-based. The following applies: 24 hours. The method, then: To determine the regulating activity of the compound prepared by Example 1 on the PPAR α activation, following experiment was performed.
CV-1 cells were transiently cotransfected with both tkPPRE-luciferase and pCMV-PPAR α, together with pCMV-RXR and pCMV-β-Gal as a transfection control. Cells were treated with DHCA or various fractions, i.e. hexane and ethylacetate fractions obtained from this Cucurbitaceae family plant extract at the concentration of 100 ug/ml. Cells were also treated with DMSO or fenofibrate (100 uM, Sigma Co.), which is a well known agonist of PPARα. After 24 hours, cell lysates were prepared for the luciferase assay, and the activities were normalized to β-Gal activities.

Take `COc1cc(C2Oc3c(OC)cc(/C=C/CO)cc3C2CO)ccc1O` (stereo not shown) [DHCA, dehydrodiconiferyl alcohol]: the “anti-adipogenic activity compared with SB203580” value in experiment [1] (3T3-L1, SB203580 10 uM as control) is given as “comparable to that of SB203580”. The “level of produced triglycerides and adipocytes differentiation” value in experiment [1] (3T3-L1 induced with MDI, 8 days, Oil Red O, O.D. 490 nm, DHCA 10 to 1000 ug/ml) was “significantly reduced in a dose dependent manner”. The “increase of luciferase activity as compared with control” value in experiment [2] (100 ug/ml, normalized to β-Gal) was found to be 10 folds. Besides, the “magnitude of PPAR α activation compared with fenofibrate” value in experiment [2] (DHCA 100 ug/ml vs fenofibrate 100 uM) is recorded as “higher than that of fenofibrate treated cells”.
